# Test results as given in PubChem BioAssay AID1963869 (Molecular Pharmacology Branch, DTP, NCI, 2024).
# System: KRAS patient-derived spheroids with HUVEC/MSC, viability
# Test: Anticancer human tumor 323965-272-R-J2-PDC patient-derived pancreatic carcinoma cell line growth inhibition [KRAS2]
# Conditions: for IC50: curve of first compound; for viability, T/C: stronger effect = lower value
# Excerpt: Multicellular complex tumor spheroid response to RAS pathway inhibitors in combination with a targeted agents in patient-derived cell lines with oncogenic KRAS variants from multiple cancer types
# A high-throughput screen of multi-cell type tumor spheroids was designed to identify active combinations of targeted small molecules and KRAS pathway inhibitors. Complex spheroids include a stromal component modeled by human endothelial cells (HUVEC) and fibroblasts modeled by human mesenchymal stem cells (MSCs). The concentration ranges selected for each drug and investigational agent were based upon clinically achievable concentrations if the clinical Cmax of the agent was known.
# Compounds. The drugs and investigational agents: BI-3406 (NSC825286), BAY-293 (NSC824723), batoprotafib (TNO155; NSC825523), sotorasib (AMG 510; NSC818433), MRTX1257 (NSC819558), elimusertib (BAY 1895344; NSC800525), molibresib (GSK525762; NSC774829), temuterkib (LY3214996; NSC803410), venetoclax (NSC766270), alisertib (NSC759677), olaparib (NSC753686), talazoparib (NSC767125), erdafitinib (NSC781556), ipatasertib (NSC767898), cabozantinib (NSC761068), nintedanib (NSC756659), abemaciclib (NSC768073), docetaxel (NSC628503), trametinib (NSC758246), and sapanisertib (NSC764658) were obtained from the National Cancer Institute (NCI) Developmental Therapeutics Program Chemical Repository. The FDA-approved anticancer drug set is available from the Developmental Therapeutics Program. […] The stock solutions were prepared in dimethyl sulfoxide (DMSO, Sigma-Aldrich, St. Louis, MO, cat. D2650) at 800-fold the tested concentration and stored at -70 degrees C prior to their use. All drugs and investigational agents were tested over a range starting from a high concentration at or near the clinical Cmax and decreasing in half-log increments. If the clinical Cmax for an agent had not been determined, the highest concentration tested was 10 microM.
# Cell Culture. All cells were maintained in an incubator at 37 degrees C and 5% CO2 with 95% humidity. The PDC lines were cultured according to standard operating procedures established by the NCI PDMR (https://pdmr.cancer.gov/sops/default.htm). Briefly, all PDCs were thawed and cultured in Matrigel-coated flasks prepared with a working solution of 1X Ham's F-12 nutrient mix, without supplementation (Invitrogen, Waltham, MA, cat. 11765054), 100 U/mL penicillin-streptomycin (Invitrogen, cat. 15140122), and 2.5% Matrigel (Corning Inc., Corning, NY, cat. 354248) for the first three passages. All PDCs were cultured in complete DMEM/F-12 media containing advanced DMEM/F-12 (Invitrogen, cat. 12634028), 4.9% defined fetal bovine serum, heat inactivated (HyClone Laboratories Inc., Logan, UT, cat. SH30070.03HI), 389 ng/mL hydrocortisone (Sigma-Aldrich, cat. H4001), 9.7 ng/mL human EGF recombinant protein (Invitrogen, cat. PHG0313), 23.4 microg/mL adenine (Sigma-Aldrich, cat. A2786), 97.3 U/mL penicillin-streptomycin (Invitrogen, cat. 15140122), 1.9 mM L-glutamine (Invitrogen, cat. 25030081), and 9.7 microM Y-27632 dihydrochloride (Tocris Bioscience, Bristol, United Kingdom, cat. 1254). The PDCs were cultured in complete DMEM/F12 media without 9.7 microM Y-27632 dihydrochloride for at least two passages prior to the screen. The established cell line HOP-62 was cultured in RPMI 1640 medium, HEPES (Invitrogen, cat. 22400105) with 10% defined fetal bovine serum (HyClone Laboratories Inc., cat. SH30070.03) and 2 mM L-glutamine (Invitrogen, cat. 25030081). The pooled donor HUVEC were cultured in endothelial cell growth medium 2 (PromoCell, Heidelberg, Germany, cat. C-22011) and the hMSC were cultured in mesenchymal stem cell growth medium 2 (PromoCell, cat. C-28009). For all experiments, HUVEC and hMSC were used at passages </=5, while the malignant cell lines were used at passages </=15. […]
# [1] = second compound 0.1 µM, first compound 0.0316 µM
# [2] = second compound 0.316 µM, first compound 0.0316 µM
# [3] = second compound 1 µM, first compound 0.0316 µM
# [4] = second compound 3.16 µM, first compound 0.0316 µM
# [5] = second compound 10 µM, first compound 0.0316 µM
# 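Also: spheroids exposed to agents for 7 days.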
# 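For viability, T/C in this document: 100% = DMSO vehicle control viability.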
compound,measurement,setting,value
CC(=O)Nc1cccc(-n2c(=O)n(C3CC3)c(=O)c3c(Nc4ccc(I)cc4F)n(C)c(=O)c(C)c32)c1 + CC1OCC2(CCN(c3cnc(Sc4ccnc(N)c4Cl)c(N)n3)CC2)C1N,IC50,second compound 0.1 µM,1.78 nM
same,IC50,second compound 0.316 µM,0.438 nM
same,IC50,second compound 1 µM,< 0.1 nM
same,IC50,second compound 3.16 µM,< 0.1 nM
same,IC50,second compound 10 µM,< 0.1 nM
same,"viability, T/C","second compound 0.1 µM, first compound 0.0001 µM",80.7%
same,"viability, T/C","second compound 0.1 µM, first compound 0.000316 µM",72.3%
same,"viability, T/C","second compound 0.1 µM, first compound 0.001 µM",56.4%
same,"viability, T/C","second compound 0.1 µM, first compound 0.00316 µM",41.8%
same,"viability, T/C","second compound 0.1 µM, first compound 0.01 µM",35%
same,"viability, T/C",[1],25.8%
same,"viability, T/C","second compound 0.316 µM, first compound 0.0001 µM",63.1%
same,"viability, T/C","second compound 0.316 µM, first compound 0.000316 µM",53.3%
same,"viability, T/C","second compound 0.316 µM, first compound 0.001 µM",41.7%
same,"viability, T/C","second compound 0.316 µM, first compound 0.00316 µM",34.9%
same,"viability, T/C","second compound 0.316 µM, first compound 0.01 µM",27.1%
same,"viability, T/C",[2],20.4%
same,"viability, T/C","second compound 1 µM, first compound 0.0001 µM",47.3%
same,"viability, T/C","second compound 1 µM, first compound 0.000316 µM",40%
same,"viability, T/C","second compound 1 µM, first compound 0.001 µM",33.6%
same,"viability, T/C","second compound 1 µM, first compound 0.00316 µM",25.6%
same,"viability, T/C","second compound 1 µM, first compound 0.01 µM",20.4%
same,"viability, T/C",[3],17.1%
same,"viability, T/C","second compound 3.16 µM, first compound 0.0001 µM",29%
same,"viability, T/C","second compound 3.16 µM, first compound 0.000316 µM",27.8%
same,"viability, T/C","second compound 3.16 µM, first compound 0.001 µM",21.7%
same,"viability, T/C","second compound 3.16 µM, first compound 0.00316 µM",17.4%
same,"viability, T/C","second compound 3.16 µM, first compound 0.01 µM",18.8%
same,"viability, T/C",[4],17.8%
same,"viability, T/C","second compound 10 µM, first compound 0.0001 µM",29%
same,"viability, T/C","second compound 10 µM, first compound 0.000316 µM",26.3%
same,"viability, T/C","second compound 10 µM, first compound 0.001 µM",19.7%
same,"viability, T/C","second compound 10 µM, first compound 0.00316 µM",17.7%
same,"viability, T/C","second compound 10 µM, first compound 0.01 µM",14.8%
same,"viability, T/C",[5],15.9%
CCNC(=O)CC1N=C(c2ccc(Cl)cc2)c2cc(OC)ccc2-n2c(C)nnc21 (stereo not given) + C=CC(=O)N1CCN(c2nc(=O)n(-c3c(C)ccnc3C(C)C)c3nc(-c4c(O)cccc4F)c(F)cc23)C(C)C1,IC50,second compound 0.1 µM,116 nM
same,IC50,second compound 0.316 µM,135 nM
same,IC50,second compound 1 µM,51.8 nM
same,IC50,second compound 3.16 µM,111 nM
same,IC50,second compound 10 µM,< 31.6 nM
same,"viability, T/C",[1],54.6%
same,"viability, T/C","second compound 0.1 µM, first compound 0.1 µM",52.5%
same,"viability, T/C","second compound 0.1 µM, first compound 0.316 µM",35.9%
same,"viability, T/C","second compound 0.1 µM, first compound 1 µM",30.9%
same,"viability, T/C","second compound 0.1 µM, first compound 3.16 µM",30%
same,"viability, T/C","second compound 0.1 µM, first compound 10 µM",25.6%
same,"viability, T/C",[2],51.5%
same,"viability, T/C","second compound 0.316 µM, first compound 0.1 µM",55.5%
same,"viability, T/C","second compound 0.316 µM, first compound 0.316 µM",40%
same,"viability, T/C","second compound 0.316 µM, first compound 1 µM",31%
same,"viability, T/C","second compound 0.316 µM, first compound 3.16 µM",28.6%
same,"viability, T/C","second compound 0.316 µM, first compound 10 µM",25.7%
same,"viability, T/C",[3],51.3%
same,"viability, T/C","second compound 1 µM, first compound 0.1 µM",49.2%
same,"viability, T/C","second compound 1 µM, first compound 0.316 µM",40%
same,"viability, T/C","second compound 1 µM, first compound 1 µM",32.5%
same,"viability, T/C","second compound 1 µM, first compound 3.16 µM",27.6%
same,"viability, T/C","second compound 1 µM, first compound 10 µM",30.1%
same,"viability, T/C",[4],57.1%
same,"viability, T/C","second compound 3.16 µM, first compound 0.1 µM",51.9%
same,"viability, T/C","second compound 3.16 µM, first compound 0.316 µM",35.5%
same,"viability, T/C","second compound 3.16 µM, first compound 1 µM",33.6%
same,"viability, T/C","second compound 3.16 µM, first compound 3.16 µM",28.3%
same,"viability, T/C","second compound 3.16 µM, first compound 10 µM",28.3%
same,"viability, T/C",[5],46.4%
same,"viability, T/C","second compound 10 µM, first compound 0.1 µM",38.4%
same,"viability, T/C","second compound 10 µM, first compound 0.316 µM",27.7%
same,"viability, T/C","second compound 10 µM, first compound 1 µM",24.9%
same,"viability, T/C","second compound 10 µM, first compound 3.16 µM",20.1%
same,"viability, T/C","second compound 10 µM, first compound 10 µM",18.5%
